Assay results from paper PMC12615753, “Glutathione as a taste modulator: molecular mechanisms of interaction with umami and sweet taste receptors” (Food Chemistry: Molecular Sciences, 2025).

Target: T1, hTAS1R1 R151A/rTAS1R3 (Homo sapiens, UniProt Q7RTX1, R151A)
T1 construct: UniProtKB number Q7RTX1–1); expressed in transfected cells; host or cells: HEK293T/17 (ATCC CRL-11268)
T1 sequence (Q7RTX1 21-841 R151A): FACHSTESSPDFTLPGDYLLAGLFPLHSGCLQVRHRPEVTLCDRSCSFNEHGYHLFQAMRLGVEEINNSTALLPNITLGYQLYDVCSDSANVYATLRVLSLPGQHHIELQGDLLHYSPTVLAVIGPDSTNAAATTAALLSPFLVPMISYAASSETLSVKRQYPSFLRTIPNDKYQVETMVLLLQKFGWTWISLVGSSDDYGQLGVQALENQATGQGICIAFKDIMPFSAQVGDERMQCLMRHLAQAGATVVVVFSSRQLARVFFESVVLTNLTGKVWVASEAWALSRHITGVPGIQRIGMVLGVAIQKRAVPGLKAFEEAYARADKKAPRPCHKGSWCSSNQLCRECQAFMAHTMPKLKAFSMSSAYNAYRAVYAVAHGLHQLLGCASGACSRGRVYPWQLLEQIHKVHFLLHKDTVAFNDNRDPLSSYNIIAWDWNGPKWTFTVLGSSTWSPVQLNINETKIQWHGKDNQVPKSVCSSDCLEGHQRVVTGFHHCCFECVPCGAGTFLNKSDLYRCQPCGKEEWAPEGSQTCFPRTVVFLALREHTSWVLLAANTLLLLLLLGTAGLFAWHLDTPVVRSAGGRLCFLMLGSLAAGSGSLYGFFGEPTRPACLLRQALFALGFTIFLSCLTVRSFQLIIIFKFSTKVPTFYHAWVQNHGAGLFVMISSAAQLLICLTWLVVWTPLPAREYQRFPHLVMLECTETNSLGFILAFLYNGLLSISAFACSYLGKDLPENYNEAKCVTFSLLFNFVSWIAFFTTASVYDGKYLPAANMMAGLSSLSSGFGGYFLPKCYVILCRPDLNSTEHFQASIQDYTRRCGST
T1 sequence (Q923K1 21-858 partner): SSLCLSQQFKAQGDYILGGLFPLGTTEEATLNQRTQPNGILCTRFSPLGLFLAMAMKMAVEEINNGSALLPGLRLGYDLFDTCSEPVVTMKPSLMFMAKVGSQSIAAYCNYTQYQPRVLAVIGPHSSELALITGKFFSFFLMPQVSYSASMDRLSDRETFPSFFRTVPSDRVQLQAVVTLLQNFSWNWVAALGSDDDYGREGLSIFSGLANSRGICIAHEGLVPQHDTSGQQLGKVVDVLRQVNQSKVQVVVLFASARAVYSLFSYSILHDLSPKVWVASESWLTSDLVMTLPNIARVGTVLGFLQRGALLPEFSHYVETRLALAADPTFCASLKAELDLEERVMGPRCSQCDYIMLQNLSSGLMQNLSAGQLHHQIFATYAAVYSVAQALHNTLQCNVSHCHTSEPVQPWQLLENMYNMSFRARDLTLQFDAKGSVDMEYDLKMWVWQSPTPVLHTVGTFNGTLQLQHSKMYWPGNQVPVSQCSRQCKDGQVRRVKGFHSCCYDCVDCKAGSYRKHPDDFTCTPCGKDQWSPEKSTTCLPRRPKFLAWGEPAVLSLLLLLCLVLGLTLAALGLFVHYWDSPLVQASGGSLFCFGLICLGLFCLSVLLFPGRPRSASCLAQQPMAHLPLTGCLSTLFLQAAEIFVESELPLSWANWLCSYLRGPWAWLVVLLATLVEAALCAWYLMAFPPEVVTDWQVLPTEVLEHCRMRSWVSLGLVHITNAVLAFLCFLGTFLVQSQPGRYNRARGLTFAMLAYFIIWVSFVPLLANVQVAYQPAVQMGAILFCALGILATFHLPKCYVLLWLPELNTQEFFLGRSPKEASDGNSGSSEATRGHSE
Test: Calcium assay, hTAS1R1 mutant co-expressed with rTAS1R3
Format: cell-based, rat

| response to the agonist alone, vs WT (R151A) | SMILES | EC50 [mM] | effect of the added compound (1 mM) on the response to L-Glu (R151A) | Max ∆F/F0 (R151A, GSH) | R1 = mutant EC50/WT EC50 (R151A, GSH) |
| --- | --- | --- | --- | --- | --- |
|  | N[C@@H](CCC(=O)N[C@@H](CS)C(=O)NCC(=O)O)C(=O)O [GSH, γ-L-glutamyl-L-cysteinyl-glycine] | 2.59 ± 1.59 | did not affect | 0.31 ± 0.08 | 1.0 |
| strongly affected | CCCC(CCC)NC(=O)c1ccc2c(c1)OCO2 [S807, N-(heptan-4-yl)benzo[d][1,3]dioxole-5-carboxamide, reference compound] |  |  |  |  |
